Among the data in US20240409585A1, “MACROCYCLIC IMMUNOMODULATORS” (priority 2021, published 2024) are IC50 values, retold here.

Molecules are shown by their SMILES. Numbered stars: 1 amine (or outer) side, 2 acyl side, 3 side chain; on linkers, the order of the positions; unused ones are H or OH. Bridge positions count the residues as written; N and C are the ends. Square brackets hold non-standard residues; d marks the D form. Peptide text beside a SMILES is read from it. * marks the point of attachment. Bip(4'-COOH) = N[C@@H](Cc1ccc(-c2ccc(C(=O)O)cc2)cc1)C(=O)O; Bip(4'-NHAc) = CC(=O)Nc1ccc(-c2ccc(C[C@H](N)C(=O)O)cc2)cc1; Phe(3-CH2NH2) = O=C([C@H](Cc1cccc(CN[*:3])c1)N[*:1])[*:2]; Phe(3-CF3) = N[C@@H](Cc1cccc(C(F)(F)F)c1)C(=O)O; Ala(morpholin-4-yl) = N[C@@H](CN1CCOCC1)C(=O)O; Phe(4-COOH) = N[C@@H](Cc1ccc(C(=O)O)cc1)C(=O)O; Bip = N[C@@H](Cc1ccc(-c2ccccc2)cc1)C(=O)O; Phe(3-Me) = Cc1cccc(C[C@H](N)C(=O)O)c1; Cha = N[C@@H](CC1CCCCC1)C(=O)O; Carboxymethyl = O=C(O)C*; NMeA = CN[C@@H](C)C(=O)O; Orn = NCCC[C@H](N)C(=O)O; Dab = NCC[C@H](N)C(=O)O

T1 sequence (Q15116 25-288): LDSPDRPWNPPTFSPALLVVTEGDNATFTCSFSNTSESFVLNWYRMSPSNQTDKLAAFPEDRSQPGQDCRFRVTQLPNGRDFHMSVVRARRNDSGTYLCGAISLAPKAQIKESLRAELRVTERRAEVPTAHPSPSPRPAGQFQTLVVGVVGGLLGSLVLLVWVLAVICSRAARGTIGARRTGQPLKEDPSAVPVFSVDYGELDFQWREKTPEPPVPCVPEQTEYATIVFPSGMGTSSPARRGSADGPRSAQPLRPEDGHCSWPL

One test addresses T1, Alexa fluor-647 labeled human PD-L1-Ig binding to Jurkat cell line over-expressing human PD-1 (Homo sapiens, UniProt Q15116).
T1 construct: expressed in transfected cells; host or cells: Jurkat
As to the kind of experiment: Jurkat-PD-1 Cell Binding High-Content Screening Assay (CBA): Method 3 (Alexa fluor-647 labeled PD-L1-Ig). Conditions: Jurkat-PD-1 cells, Alexa fluor-647 labeled PD-L1-Ig 177 nM; head μM; read-out: CBA Method 3 μM. In outline: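 Readout by high-content imaging of PFA-fixed, Hoechst-stained cells after 1 h with 177 nM (final) Alexa fluor-647 PD-L1-Ig. Compound was added first to hPD-1 Jurkat cells in RPMI plus 10% FCS for 2 h at 37 °C.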
As for `CC(C)C[C@H]1NC(=O)[C@H](C)N(C)C(=O)[C@H](CCC(N)=O)NC(=O)[C@H](Cc2ccc(-c3ccccc3)cc2)NC(=O)[C@H](Cc2ccc(-c3ccc(C(=O)O)cc3)cc2)NC(=O)[C@H](Cc2cccc(C(F)(F)F)c2)NC(=O)[C@H](CC(=O)O)NC(=O)[C@H](Cc2ccc(C(=O)O)cc2)NC(=O)[C@H](CC2CCCCC2)NC(=O)CSC[C@@H](C(=O)N[C@@H](CCN)C(N)=O)NC(=O)[C@H](CCCN)NC(=O)[C@H](C(C)C)NC(=O)[C@H](CC2CCCCC2)NC(=O)[C@H](CCN)NC1=O` [Example 5165] ({CH2CO}-[Cha][Phe(4-COOH)]D[Phe(3-CF3)][Bip(4'-COOH)][Bip]Q[NMeA][dL][Dab][Cha]V[Orn]C[Dab]-NH2; thioether N-14), the IC50 is 0.03 µM.

Consider `Cc1cccc(C[C@@H]2NC(=O)[C@H](CC(=O)O)NC(=O)[C@H](Cc3ccc(OCC(=O)O)cc3)NC(=O)[C@H](CC3CCCCC3)NC(=O)CSC[C@@H](C(=O)N[C@@H](CCN)C(N)=O)NC(=O)[C@H](CCCN)NC(=O)[C@H](C(C)C)NC(=O)[C@H](Cc3cccc(CN)c3)NC(=O)[C@H](CCN)NC(=O)[C@@H](CC(C)C)NC(=O)[C@H](C)N(C)C(=O)[C@H](CCC(N)=O)NC(=O)[C@H](Cc3ccc(-c4ccccc4)cc3)NC(=O)[C@H](Cc3ccc(C(=O)O)cc3)NC2=O)c1` [Example 5188] ({CH2CO}-[Cha]Y(Carboxymethyl)D[Phe(3-Me)][Phe(4-COOH)][Bip]Q[NMeA][dL][Dab][Phe(3-CH2NH2)]V[Orn]C[Dab]-NH2; thioether N-14), for which the IC50 was found to be 0.05 µM.

Take `CC(=O)Nc1ccc(-c2ccc(C[C@@H]3NC(=O)[C@H](Cc4cccc(C)c4)NC(=O)[C@H](CC(=O)O)NC(=O)[C@H](Cc4ccc(C(=O)O)cc4)NC(=O)[C@H](CC4CCCCC4)NC(=O)CSC[C@@H](C(=O)N[C@@H](CCN)C(N)=O)NC(=O)[C@H](CCC(=O)O)NC(=O)[C@H](C(C)C)NC(=O)[C@H](CC4CCCCC4)NC(=O)[C@H](CCN)NC(=O)[C@@H](CC(C)C)NC(=O)[C@H](C)N(C)C(=O)[C@H](CCC(N)=O)NC(=O)[C@H](Cc4ccc(-c5ccccc5)cc4)NC3=O)cc2)cc1` [Example 5203] ({CH2CO}-[Cha][Phe(4-COOH)]D[Phe(3-Me)][Bip(4'-NHAc)][Bip]Q[NMeA][dL][Dab][Cha]VEC[Dab]-NH2; thioether N-14): the IC50 came to 0.01 µM.

Still in this test, the particulars now being: Jurkat-PD-1 cells, Alexa fluor-647 labeled PD-L1-Ig 177 nM; nM; read-out: CBA Method 3.
Turning to `Cc1cccc(C[C@@H]2NC(=O)[C@H](CC(=O)O)NC(=O)[C@H](Cc3ccc(OCC(=O)O)cc3)NC(=O)[C@H](CN3CCOCC3)NC(=O)CSC[C@@H](C(=O)N[C@@H](CCN)C(N)=O)NC(=O)[C@H](CCC(N)=O)NC(=O)[C@H](C(C)C)NC(=O)[C@H](CC3CCCCC3)NC(=O)[C@H](CCN)NC(=O)[C@@H](CC(C)C)NC(=O)[C@H](C)N(C)C(=O)[C@H](CCC(N)=O)NC(=O)[C@H](Cc3ccc(-c4ccccc4)cc3)NC(=O)[C@H](Cc3ccc(OCC(=O)O)cc3)NC2=O)c1` [Example 5224] ({CH2CO}-[Ala(morpholin-4-yl)]Y(Carboxymethyl)D[Phe(3-Me)]Y(Carboxymethyl)[Bip]Q[NMeA][dL][Dab][Cha]VQC[Dab]-NH2; thioether N-14), the IC50 was determined as 0.0035 µM.

On to `Cc1cccc(C[C@@H]2NC(=O)[C@H](CC(=O)O)NC(=O)[C@H](Cc3ccc(OCC(=O)O)cc3)NC(=O)[C@H](CCC(=O)O)NC(=O)CSC[C@@H](C(=O)N[C@@H](CCN)C(N)=O)NC(=O)[C@H](CCCN)NC(=O)[C@H](C(C)C)NC(=O)[C@H](CC3CCCCC3)NC(=O)[C@H](CCN)NC(=O)[C@@H](CC(C)C)NC(=O)[C@H](C)N(C)C(=O)[C@H](CCC(N)=O)NC(=O)[C@H](Cc3ccc(-c4ccccc4)cc3)NC(=O)[C@H](Cc3ccc(C(=O)O)cc3)NC2=O)c1` [Example 5170] ({CH2CO}-EY(Carboxymethyl)D[Phe(3-Me)][Phe(4-COOH)][Bip]Q[NMeA][dL][Dab][Cha]V[Orn]C[Dab]-NH2; thioether N-14), for which the IC50 stood at 0.0059 µM.

Regarding `CC(C)C[C@H]1NC(=O)[C@H](C)N(C)C(=O)[C@H](Cc2ccc(C(=O)O)cc2)NC(=O)[C@H](Cc2ccc(-c3ccccc3)cc2)NC(=O)[C@H](Cn2cc(C3CC3)nn2)NC(=O)[C@H](Cc2cccc(C(F)(F)F)c2)NC(=O)[C@H](CC(=O)O)NC(=O)[C@H](Cc2ccc(C(=O)O)cc2)NC(=O)[C@H]([C@@H](C)N)NC(=O)CSC[C@@H](C(=O)N[C@@H](CCN)C(N)=O)NC(=O)[C@H](CCC(=O)O)NC(=O)[C@H](C(C)C)NC(=O)[C@H](CC2CCCCC2)NC(=O)[C@H](CCN)NC1=O` [Example 5251], the IC50 was 0.0016 µM.
